# Assay results from US20070276008A1, “Pharmaceutical formulation comprising glycine as a stabilizer” (Eisai Company Limited, priority 1997, published 2007).
# Read-outs that look alike come from different tables or passages of the source.
# Tests used:
# [1] = Glycine concentration and temperature studies: chemical stability (residual potency and impurity levels); format: physicochemical
# Method: A, B, and C contain 7.5 mg/mL glycine, equal to 100 mM glycine. […] F is the control without glycine.
# [2] = Discoloration on reconstitution in aqueous solutions for intravenous administration; format: physicochemical; conditions: e.g. 5% dextrose or 0.9% saline
# From the text: It has been found by the present inventors that anti-ulcerative compounds such as compound 1 and the compounds described by general formula I below discolor when they are reconstituted, i.e., dissolved, in aqueous solutions, particularly in solutions suitable for intravenous administration, e.g., 5% dextrose or 0.9% saline. Such solutions quickly turn yellow to yellow-brown.
# [3] = format: physicochemical
# Method: A, B, and C contain 7.5 mg/mL glycine, equal to 100 mM glycine. D and E have 11.25 mg/mL glycine, equal to 150 mM glycine. F is the control without glycine.
# [4] = Effect of storage conditions (light, temperature) on absorbance 400-650 nm; format: physicochemical; conditions: 2 mg/mL, 0.9% saline
# Method: The effect of exposure to light and temperature was evaluated as a function of time for 0.9% saline solutions containing 2 mg/mL compound 1, with or without 10 mM glycine-NaOH buffer, was evaluated by monitoring absorbance at 400, 450, 500, 600, and 650 nm.
# [5] = pH studies: chemical (HPLC) and physical (color) stability in water for injection; conditions: for Chemical and physical stability: 24 hours
# [6] = Preliminary buffer evaluation (phosphate vs glycine-NaOH); format: physicochemical
# Method: It is desirable that the pH of solutions of compound 1 and other compounds of the invention in 5% dextrose or normal saline remain in a range near about pH 10 to provide for an acceptable use period in a clinical setting. Phosphate and glycine buffer systems were tested.
# Based on this propensity to precipitate, phosphate was disqualified as a buffer for the compounds of the invention.
# [7] = Reduced glycine concentration experiments: color change in 0.9% saline pH 10; format: physicochemical
# Method: Absorption measurements were taken at the zero time point, and at 2, 4, 6, and 8 hours after dissolution. […] The glycine concentration-dependence of compound 1 discoloration was evaluated at […] after dissolution.
compound,measurement,setting,value
COCCCOc1ccnc(C[S+]([O-])c2nc3ccccc3[nH]2)c1C (centres unmarked) [compound 1],Difference in chemical stability between glycine formulations,"[1]; 0 mM, 100 mM and 150 mM glycine",No substantial difference
same,Increase in impurity levels,"[1]; 5° C., pH 10.5 to 11, 24 hours",without measurable increases
same,Impurities measured,"[1]; room temperature, pH 10.5, 24 hours",> 1%
same,Increase in impurities,"[1]; room temperature, pH 11 solution, 24 hours",< 0.5%
same,Color on reconstitution in aqueous solutions,[2],discolor
same,Color formation,[3]; 5° C. compared to room temperature,significantly retarded
same,Discoloration,"[3]; solutions devoid of glycine, regardless of temperature",discolored very quickly
same,Discoloration,[3]; solutions with greater glycine concentrations,discolored more slowly
same,Effect of glycine-NaOH buffer on absorption,"[4]; 10 mM glycine-NaOH, all wavelengths, temperatures, lighting conditions",decreases absorption
same,Effect of exposure to light on color development,[4]; with or without 10 mM glycine-NaOH,no detrimental effect
same,Color development with increasing storage temperature,[4]; without glycine-NaOH buffer,increase in undesirable color development
same,Order of chemical and physical stability by pH,"[5]; 5° C. and room temperature, 8 mg/mL in WFI",pH 11.5>pH 11>pH 10.5>pH 10>pH 9.5
same,Time until solutions began to assume a yellow color,"[5]; pH 9.5, 8 mg/mL in WFI",≤ 30 min
same,Chemical and physical stability,"[5]; pH 10.5, cold temperatures (5° C.)",adequate
same,Chemical and physical stability,"[5]; pH 10.5, room temperature",marginally stable
same,Stability for manufacture and handling in preparation for freeze drying,"[5]; pH 11 or greater, cold temperatures",adequately stable
same,Color formation,"[6]; 50 mM phosphate buffer, compared with unbuffered solutions",color formation was not inhibited
same,Discoloration,"[6]; 100 mM glycine/NaOH, pH above 10",substantially slower
same,Appearance on reconstitution,[6]; phosphate-containing plugs,hazy solutions
same,Appearance after freeze-drying,[6]; solutions in phosphate and glycine buffers,"white, well-formed plugs"
same,Rate of discoloration (absorption),"[7]; 4 mg/mL, 0.9% saline pH 10, 25° C. dark, 0-8 hours, glycine-free vs 50 mM glycine",much greater rate
same,Difference in absorbance spectrum between glycine concentrations,"[7]; 4 mg/mL, 0.9% saline pH 10, 5, 10, 25, 50 mM glycine-NaOH, 5 hours",little difference
same,Absorbance,"[7]; 5 mM glycine-NaOH solution, 5 hours post-dissolution",noticeably higher absorbance
